US20080254993A1, “Use of abscisic acid analogs to enhance growth control” (priority 2007, published 2008)

Legend:
tomato = assay: Tomato leaf transpiration, greenhouse, porometer (Example 5); type: in vivo, Tomato (variety: Rutgers); details: for Tomato leaf transpiration (in words): PBI-429 25-200 ppm, trinexapac-ethyl 250-2000 ppm, alone or combined, 3-14 days after treatment
Description: The effect of ABA analog (PBI-429) and trinexapac-ethyl combinations on transpiration and growth inhibition of dicotyledonous (tomato) was also examined in the greenhouse condition. Tomato (variety: Rutgers) seeds were sown in 18-cell flat filled with Promix PGX (available from Premier Horticulture Inc. Quakertown, Pa.) and grown for 3 weeks to allow for germination and initial growth. Plants were then transplanted into pots (18 cm in diameter and 18 cm in height), filled with Promix BX (available from Premier Horticulture Inc. Quakertown, Pa.), and grown for one week before the chemical treatment. Plants received daily irrigation and weekly fertilizer (1 g/L all purpose fertilizer 20-20-20, available from The Scotts Company, Marysville, Ohio). During the chemical treatment, a 24 mL (4 mL/plant) solution was foliar sprayed on the tomato canopy. Leaf transpiration rates were measured using a LI-1600 Steady State Porometer (LI-Cor, Lincoln, Nebr.) at 3, 5, 7, 10, and 14 days after treatment. The leaf transpiration rate was normalized to the percentage of control plant to minimize the experimental errors caused by environmental factors. Plant height was measured at 0, 3, 5, 7, 10 and 14 days after treatment. The growth rate was calculated based on the changes of plant height in certain intervals. The plants were harvested and the leaf number was counted at 14 days after treatment.

creeping bentgrass [1] = assay: Golf course green field study on creeping bentgrass with PBI-702: turfgrass height, soil moisture, turf quality (Example 3); type: in vivo, Penncross creeping bentgrass; details: for Soil moisture / Turfgrass height / Turf quality: 25 ppm trinexapac-ethyl alone; for Turf quality: visual 0-9 scale, 9 best
Procedure: (§1) Field studies were conducted at the nursery green or the practice green at Countryside golf course (Mundelein, Ill.). Both greens were sand based and growing Penncross creeping bentgrass. Grass was managed with typical Illinois golf course management practices.
Chemical solutions were prepared with distilled water. Tween 20 (0.05% v/v) was used as the surfactant when necessary. Trinexapac-ethyl (commercial product Primo Maxx, 11.3% active ingredient) was purchased from Syngenta Crop Protection Inc. (Greensboro, N.C.). ABA analogs, 8′ acetylene-ABA, acid (PBI-524), 8′ acetylene-ABA, ester (PBI-429), 8′ cyclopropane ester (PBI-696), or Tetralone, first carbon tail acetylene, ester (PBI-702), were obtained from Plant Biotechnology Institute, National Research Council of Canada (Saskatoon, Saskatchewan, Canada).
Chemical solutions were foliar applied to the turfgrass canopy at the rate of 4-gallons/1000 square foot (or 0.163 L/m^−2) immediately after finishing the preparation of solutions. After treatment, turfgrasses were arranged in a randomized complete block experimental design. Turfgrass quality, turfgrass height or clip fresh weight was measured on assigned dates. Turfgrass quality was visually rated on a 0-9 scale based on the color, uniformity, and density of the grass with 0 as the worst and 9 as the best. Turfgrass height was measured as the distance between canopy surface and soil. Clippings were collected form each plot; all plots were cut to a uniform height.
All experiments were randomized complete block experimental design. Data were analyzed by analysis of variance. Duncan's new multiple range tests at α=0.05 were used for mean separations.
Trinexapac-ethyl (25 ppm) or PBI-702 (50 ppm) were one time foliar applied alone or in combination to creeping bentgrass in the golf course green to investigate their effect on turfgrass quality, growth inhibition and soil moisture.

creeping bentgrass [2] = assay: Golf course green field study on creeping bentgrass with PBI-696: growth rate, turfgrass quality (Example 4); type: in vivo, Penncross creeping bentgrass; details: 4 days after treatment, trinexapac-ethyl (25 ppm) alone
Procedure: as §1
Chemical solutions were prepared with distilled water. Tween 20 (0.05% v/v) was used as the surfactant when necessary. Trinexapac-ethyl (commercial product Primo Maxx, 11.3% active ingredient) was purchased from Syngenta Crop Protection Inc. (Greensboro, N.C.). […]
Chemical solutions were foliar applied to the turfgrass canopy at the rate of 4-gallons/1000 square foot (or 0.163 L/m^−2) immediately after finishing the preparation of solutions. […] Turfgrass quality, turfgrass height or clip fresh weight was measured on assigned dates. […] Turfgrass height was measured as the distance between canopy surface and soil. […]
All experiments were randomized complete block experimental design. Data were analyzed by analysis of variance. […]
Trinexapac-ethyl (25 ppm) and PBI-696 (5 or 50 ppm) were one time foliar applied in combination to creeping bentgrass in the golf course green. Turfgrass quality and growth rate were measured 4 days after treatment.

C#CC1(C)CC(=O)C=C(C)C1(O)/C=C/C(C)=C\C(=O)OC (stereo not drawn) [PBI-429, 8′ acetylene-ABA, ester] was tested, and the Transpiration (tomato; 25 ppm PBI-429, 3 days after treatment) was 53 % of control, the Transpiration (tomato; 25 ppm PBI-429, 5 days after treatment) was 61 % of control and the Transpiration (tomato; 25 ppm PBI-429, 7 days after treatment) was 75 % of control. The Transpiration (tomato; 25 ppm PBI-429, 10 days after treatment) was 80 % of control, the Transpiration (tomato; 25 ppm PBI-429, 14 days after treatment) was 103 % of control and the Transpiration (tomato; 50 ppm PBI-429, 3 days after treatment) was 36 % of control. The Transpiration (tomato; 50 ppm PBI-429, 5 days after treatment) was 32 % of control, the Transpiration (tomato; 50 ppm PBI-429, 7 days after treatment) was 42 % of control and the Transpiration (tomato; 50 ppm PBI-429, 10 days after treatment) was 69 % of control. The Transpiration (tomato; 50 ppm PBI-429, 14 days after treatment) was 99 % of control, the Transpiration (tomato; 100 ppm PBI-429, 3 days after treatment) was 34 % of control and the Transpiration (tomato; 100 ppm PBI-429, 5 days after treatment) was 29 % of control. For the same compound, the Transpiration (tomato; 100 ppm PBI-429, 7 days after treatment) was 38 % of control, the Transpiration (tomato; 100 ppm PBI-429, 10 days after treatment) was 55 % of control and the Transpiration (tomato; 100 ppm PBI-429, 14 days after treatment) was 98 % of control. For the same compound, the Transpiration (tomato; 200 ppm PBI-429, 3 days after treatment) was 26 % of control, the Transpiration (tomato; 200 ppm PBI-429, 5 days after treatment) was 24 % of control and the Transpiration (tomato; 200 ppm PBI-429, 7 days after treatment) was 28 % of control. The Transpiration (tomato; 200 ppm PBI-429, 10 days after treatment) was 34 % of control, the Transpiration (tomato; 200 ppm PBI-429, 14 days after treatment) was 71 % of control and the “Tomato leaf transpiration (in words)” value (tomato) was “inhibited tomato leaf transpiration”.
In the case of CCOC(=O)C1CC(=O)C(=C(O)C2CC2)C(=O)C1 (stereo not drawn) [trinexapac-ethyl, reference compound], the Soil moisture (creeping bentgrass [1]; 4 days after treatment) is reported as 11.2%, the Turfgrass height (creeping bentgrass [1]; 4 days after treatment) is reported as 7.3 mm and the “Reducing growth or maintaining soil moisture (in words)” value (creeping bentgrass [1]; 4 days after treatment, trinexapac-ethyl 25 ppm, PBI-702 50 ppm, alone or combined) is reported as “ineffective at reducing growth or maintaining soil moisture”. For the same compound, the Soil moisture (creeping bentgrass [1]; 7 days after treatment) was 12.7%, the Turfgrass height (creeping bentgrass [1]; 7 days after treatment) was 6.5 mm and the Turf quality (creeping bentgrass [1]; 7 days after treatment) was 7.3. For the same compound, the “Reducing growth (in words)” value (creeping bentgrass [1]; 7 days after treatment, trinexapac-ethyl 25 ppm, PBI-702 50 ppm, alone or combined) was “effective at reducing growth”, the Soil moisture (creeping bentgrass [1]; 38 days after treatment) was 12.4% and the Turfgrass height (creeping bentgrass [1]; 38 days after treatment) was 6.0 mm. For the same compound, the Turf quality (creeping bentgrass [1]; 38 days after treatment) was 7.6, the Transpiration (tomato; 250 ppm trinexapac-ethyl, 3 days after treatment) was 95 % of control and the Transpiration (tomato; 250 ppm trinexapac-ethyl, 5 days after treatment) was 95 % of control. The Transpiration (tomato; 250 ppm trinexapac-ethyl, 7 days after treatment) was 94 % of control, the Transpiration (tomato; 250 ppm trinexapac-ethyl, 10 days after treatment) was 94 % of control and the Transpiration (tomato; 250 ppm trinexapac-ethyl, 14 days after treatment) was 100 % of control. The Transpiration (tomato; 500 ppm trinexapac-ethyl, 3 days after treatment) was 94 % of control, the Transpiration (tomato; 500 ppm trinexapac-ethyl, 5 days after treatment) was 101 % of control and the Transpiration (tomato; 500 ppm trinexapac-ethyl, 7 days after treatment) was 94 % of control. The Transpiration (tomato; 500 ppm trinexapac-ethyl, 10 days after treatment) was 97 % of control, the Transpiration (tomato; 500 ppm trinexapac-ethyl, 14 days after treatment) was 97 % of control and the Transpiration (tomato; 1000 ppm trinexapac-ethyl, 3 days after treatment) was 100 % of control. The Transpiration (tomato; 1000 ppm trinexapac-ethyl, 5 days after treatment) was 95 % of control, the Transpiration (tomato; 1000 ppm trinexapac-ethyl, 7 days after treatment) was 94 % of control and the Transpiration (tomato; 1000 ppm trinexapac-ethyl, 10 days after treatment) was 101 % of control. For the same compound, the Transpiration (tomato; 1000 ppm trinexapac-ethyl, 14 days after treatment) was 100 % of control, the Transpiration (tomato; 2000 ppm trinexapac-ethyl, 3 days after treatment) was 94 % of control and the Transpiration (tomato; 2000 ppm trinexapac-ethyl, 5 days after treatment) was 96 % of control. The Transpiration (tomato; 2000 ppm trinexapac-ethyl, 7 days after treatment) was 93 % of control, the Transpiration (tomato; 2000 ppm trinexapac-ethyl, 10 days after treatment) was 91 % of control and the Transpiration (tomato; 2000 ppm trinexapac-ethyl, 14 days after treatment) was 96 % of control. For the same compound, the “Tomato leaf transpiration (in words)” value (tomato) was “did not significantly inhibited tomato leaf transpiration”, the Growth rate (creeping bentgrass [2]) was 549 mg dry weight m^−2 day^−1 and the Turfgrass quality (creeping bentgrass [2]; visual 0-9 scale, 9 best) was 8.0.
